Reference: ChEMBL document CHEMBL1201862, “PubChem BioAssay data set” (2004)
Activity calls are given as the source filed them.

Tests used:
[1] = target: T1, Neuropeptides B/W receptor type 1 (Homo sapiens, UniProt P48145); experiment: Fluorescence-based dose response cell-based high throughput screening assay to identify antagonists of the G-protein coupled receptor 7 (GPR7). [Related pubchem assays: 1952 (Screening assay (GPR7 antagonists).), 1880 (Summary AID.)]; format: functional
T1 sequence (P48145 whole entry): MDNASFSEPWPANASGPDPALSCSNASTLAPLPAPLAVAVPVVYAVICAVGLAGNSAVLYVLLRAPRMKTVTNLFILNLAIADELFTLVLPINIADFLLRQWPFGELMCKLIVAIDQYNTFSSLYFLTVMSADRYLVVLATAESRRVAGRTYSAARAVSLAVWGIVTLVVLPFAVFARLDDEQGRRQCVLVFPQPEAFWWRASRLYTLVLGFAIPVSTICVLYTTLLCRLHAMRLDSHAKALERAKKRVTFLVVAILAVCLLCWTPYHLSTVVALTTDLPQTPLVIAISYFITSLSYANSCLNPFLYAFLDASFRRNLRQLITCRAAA

[2] = target: Melanin-concentrating hormone receptor 1 (Homo sapiens, UniProt Q99705); experiment: Fluorescence-based counterscreen for antagonists of the G-protein coupled receptor 7 (GPR7): cell-based high throughput dose response assay to identify antagonists of the melanin-concentrating hormone receptor 1 (MCHR1).; format: functional
Mu-type opioid receptor = Mu-type opioid receptor (Homo sapiens, UniProt P35372); format: functional, cell-based;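 note: U2OS cells with beta-arrestin recruitment to OPRM1 by beta-gal complementation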
[3] = target: T2, Long-chain-fatty-acid--AMP ligase FadD28 (Mycobacterium tuberculosis, UniProt P9WQ59); experiment: Fluorescence polarization aasay to screen for inhibitors that compete for the binding of FadD28 to a bisubstrate Measured in Biochemical System Using Plate Reader - 2147-01_Inhibitor_Dose_CherryPick_Activity.; format: functional, Mycobacterium tuberculosis H37Rv
T2 sequence (P9WQ59 whole entry): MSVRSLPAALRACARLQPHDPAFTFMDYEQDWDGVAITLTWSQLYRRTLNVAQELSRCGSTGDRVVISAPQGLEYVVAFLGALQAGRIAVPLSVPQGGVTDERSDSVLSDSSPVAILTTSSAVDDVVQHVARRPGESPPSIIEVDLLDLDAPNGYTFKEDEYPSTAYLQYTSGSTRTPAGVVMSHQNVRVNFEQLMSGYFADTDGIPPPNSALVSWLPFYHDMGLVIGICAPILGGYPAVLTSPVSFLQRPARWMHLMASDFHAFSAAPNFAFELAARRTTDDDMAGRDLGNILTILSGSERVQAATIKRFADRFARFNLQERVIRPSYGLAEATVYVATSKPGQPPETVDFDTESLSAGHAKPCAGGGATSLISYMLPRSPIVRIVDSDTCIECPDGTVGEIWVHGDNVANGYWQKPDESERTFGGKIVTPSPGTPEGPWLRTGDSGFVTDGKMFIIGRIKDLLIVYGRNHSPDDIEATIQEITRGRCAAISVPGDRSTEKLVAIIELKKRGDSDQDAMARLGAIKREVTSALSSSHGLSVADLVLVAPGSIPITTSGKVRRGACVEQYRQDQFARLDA

[4] = target: 5-hydroxytryptamine receptor 2A (Mus musculus, UniProt P35363); format: functional, cell-based;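 note: CHO-K1 cells with tagged receptor and beta-arrestin; agonist potency measured as compound-induced activation of the receptor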
[5] = target: T3, Rac GTPase-activating protein 1 (Homo sapiens, UniProt Q9H0H5); experiment: blockers of MgcRacGAP-driven Rac1 GTP hydrolysis – biochemical, ADP Hunter fluorescence, primary and confirmatory, confirmation (AID 624330); format: functional
T3 sequence (Q9H0H5 whole entry): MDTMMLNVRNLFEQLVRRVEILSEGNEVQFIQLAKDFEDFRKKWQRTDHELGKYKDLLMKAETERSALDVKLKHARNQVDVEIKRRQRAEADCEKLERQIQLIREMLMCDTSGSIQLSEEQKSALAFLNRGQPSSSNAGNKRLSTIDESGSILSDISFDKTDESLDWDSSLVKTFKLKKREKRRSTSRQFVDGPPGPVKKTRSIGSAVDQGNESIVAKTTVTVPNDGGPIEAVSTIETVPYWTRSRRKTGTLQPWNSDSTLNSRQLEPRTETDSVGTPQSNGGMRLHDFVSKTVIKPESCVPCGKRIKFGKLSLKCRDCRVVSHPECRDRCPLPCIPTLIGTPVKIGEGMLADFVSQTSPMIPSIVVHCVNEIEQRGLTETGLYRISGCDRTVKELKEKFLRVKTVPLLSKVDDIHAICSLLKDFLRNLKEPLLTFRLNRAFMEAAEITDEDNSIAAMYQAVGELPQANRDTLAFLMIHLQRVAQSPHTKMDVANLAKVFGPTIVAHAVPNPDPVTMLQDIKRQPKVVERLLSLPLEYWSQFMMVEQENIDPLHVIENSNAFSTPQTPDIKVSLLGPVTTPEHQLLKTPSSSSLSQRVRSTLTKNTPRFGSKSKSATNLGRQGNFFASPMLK

[6] = activation of miR-122 Renilla sensor silencing – cell-based, Huh7 psiCHECK-miR122, Renilla luciferase, cherry-picked, dose response (AID 651956); format: functional;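 note: huh7 hepatoma cells stably carrying a psiCHECK-2 miR-122 sensor plasmid; renilla luciferase signal reporting endogenous miR-122 activity after 48 h compound exposure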
[7] = general mammalian cell viability loss – activator set, cherry-pick, cytotoxicity control for miR-122 modulator project, dose response (AID 720690); format: functional, cell-based;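 note: HEK293T human cells scored for general mammalian cytotoxicity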
[8] = target: Potassium channel subfamily K member 9 (Homo sapiens, UniProt Q9NPC2); experiment: KCNK9 flux blockade, concentration-response – cell-based, FluxOR thallium flux, selectivity assay for TASK1 inhibitor project, SAR follow-up (AID 652211); format: functional;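 note: potency is for inhibitors of the channel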
Beta-lactamase [9] = target: Beta-lactamase (Salmonella choleraesuis (strain SC-B67), UniProt Q5J463); experiment: Epi-absorbance-based counterscreen for selective VIM-2 inhibitors: dose response biochemical high throughput screening assay to identify inhibitors of TEM-1 serine-beta-lactamase.
Beta-lactamase [10] = target: T4, Beta-lactamase (Pseudomonas aeruginosa, UniProt Q79MP6); experiment: inhibition of IMP-1 beta-lactamase activity – biochemical, epi-absorbance, selectivity assay for VIM-2 inhibitor project, dose response (AID 1920)
Beta-lactamase [11] = target: T4, Beta-lactamase; experiment: […] counterscreen for selective VIM-2 inhibitors: dose response biochemical high throughput screening assay to identify inhibitors of IMP-1 metallo-beta-lactamase.
[12] = target: DNA dC->dU-editing enzyme APOBEC-3A (Homo sapiens, UniProt P31941); experiment: A3A deaminase inhibition for selectivity – biochemical, dose response (AID 504722); format: functional
[13] = target: DNA dC->dU-editing enzyme APOBEC-3G (Homo sapiens, UniProt Q9HC16); experiment: Dose Response confirmation of small molecule APOBEC3G DNA Deaminase Inhibitors via a fluorescence-based single-stranded DNA deaminase assay. [Related pubchem assays (depositor defined):AID493012, AID493028]; format: functional
Beta-galactosidase = Beta-galactosidase (Escherichia coli, UniProt Q8VNN2); experiment: Dose response counterscreen for EBI2 assay utilizing the enzyme, b-galactosidase.; format: functional
[14] = viability loss in HEK293 kidney cells – cell-based, cherry-picks, set 5, cytotoxicity control, dose response (AID 1053117); format: functional
[15] = target: T5, Botulinum neurotoxin type A (Clostridium botulinum (strain Hall / ATCC 3502 / NCTC 13319 / Type A), UniProt P0DPI1); experiment: High-throughput multiplex microsphere dose response for inhibitors of toxin protease, specifically Botulinum neurotoxin light chain A protease, compounds from Powder Set 01.; format: functional, Clostridium botulinum A str. ATCC 3502; conditions: read-out: EC50_MICROM
[16] = target: T5, Botulinum neurotoxin type A; experiment: Confirmatory FRET assay using full length substrates for Botulinum neurotoxin light chain A protease, with Powder Set01.; format: functional
[17] = inhibitors of EBV LMP1 NF-kappaB signaling – cell-based, luciferase reporter, luminescence, dry powder, set 2, dose response (AID 624376); format: functional

T5 sequence (P0DPI1 2-448 limits assumed): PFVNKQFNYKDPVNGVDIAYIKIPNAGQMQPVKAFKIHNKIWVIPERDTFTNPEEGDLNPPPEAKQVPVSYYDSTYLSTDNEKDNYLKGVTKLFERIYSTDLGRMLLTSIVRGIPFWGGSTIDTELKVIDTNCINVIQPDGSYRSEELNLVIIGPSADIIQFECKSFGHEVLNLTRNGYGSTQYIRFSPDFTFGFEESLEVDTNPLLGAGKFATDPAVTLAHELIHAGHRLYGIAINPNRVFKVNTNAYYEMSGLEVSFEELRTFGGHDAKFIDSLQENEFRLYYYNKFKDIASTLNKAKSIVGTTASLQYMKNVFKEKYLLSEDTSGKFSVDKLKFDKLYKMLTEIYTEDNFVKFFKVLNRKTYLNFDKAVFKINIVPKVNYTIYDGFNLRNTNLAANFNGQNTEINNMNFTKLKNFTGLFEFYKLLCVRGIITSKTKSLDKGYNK
T4 sequence (Q79MP6 whole entry): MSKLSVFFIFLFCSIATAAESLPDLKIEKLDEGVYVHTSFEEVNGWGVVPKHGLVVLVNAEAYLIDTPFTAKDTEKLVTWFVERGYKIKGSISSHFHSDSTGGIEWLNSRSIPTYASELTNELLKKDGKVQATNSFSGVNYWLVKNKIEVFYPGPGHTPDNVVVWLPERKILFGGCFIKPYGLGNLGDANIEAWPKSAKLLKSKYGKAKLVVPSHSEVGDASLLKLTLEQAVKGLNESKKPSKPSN
DNA dC->dU-editing enzyme APOBEC-3G, sequence (Q9HC16 whole entry): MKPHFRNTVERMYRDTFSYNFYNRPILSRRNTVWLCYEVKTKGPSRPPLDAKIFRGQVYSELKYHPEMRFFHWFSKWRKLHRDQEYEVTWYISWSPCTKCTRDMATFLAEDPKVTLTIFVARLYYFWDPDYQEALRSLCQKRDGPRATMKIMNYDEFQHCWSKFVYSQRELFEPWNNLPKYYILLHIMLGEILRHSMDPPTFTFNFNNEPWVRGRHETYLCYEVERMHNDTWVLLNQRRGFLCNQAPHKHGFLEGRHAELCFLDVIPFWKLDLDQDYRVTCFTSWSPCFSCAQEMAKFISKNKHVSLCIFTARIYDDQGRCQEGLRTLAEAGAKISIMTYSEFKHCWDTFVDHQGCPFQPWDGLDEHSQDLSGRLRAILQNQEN
Melanin-concentrating hormone receptor 1, sequence (Q99705 whole entry): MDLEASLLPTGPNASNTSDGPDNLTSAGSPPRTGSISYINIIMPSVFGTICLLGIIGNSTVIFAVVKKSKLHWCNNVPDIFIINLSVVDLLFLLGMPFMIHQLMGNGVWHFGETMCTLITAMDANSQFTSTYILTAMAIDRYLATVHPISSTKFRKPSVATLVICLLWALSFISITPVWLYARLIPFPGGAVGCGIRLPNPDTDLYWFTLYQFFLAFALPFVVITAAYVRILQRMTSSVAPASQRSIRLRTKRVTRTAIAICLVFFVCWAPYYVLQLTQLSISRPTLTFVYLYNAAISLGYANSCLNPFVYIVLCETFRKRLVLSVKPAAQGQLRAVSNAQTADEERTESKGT
DNA dC->dU-editing enzyme APOBEC-3A, sequence (P31941 whole entry): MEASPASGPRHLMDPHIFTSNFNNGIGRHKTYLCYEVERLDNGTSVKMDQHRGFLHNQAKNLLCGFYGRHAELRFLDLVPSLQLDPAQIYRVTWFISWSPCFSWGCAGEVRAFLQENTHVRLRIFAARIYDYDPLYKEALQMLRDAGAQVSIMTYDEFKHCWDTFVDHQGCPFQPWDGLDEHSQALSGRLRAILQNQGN
5-hydroxytryptamine receptor 2A, sequence (P35363 whole entry): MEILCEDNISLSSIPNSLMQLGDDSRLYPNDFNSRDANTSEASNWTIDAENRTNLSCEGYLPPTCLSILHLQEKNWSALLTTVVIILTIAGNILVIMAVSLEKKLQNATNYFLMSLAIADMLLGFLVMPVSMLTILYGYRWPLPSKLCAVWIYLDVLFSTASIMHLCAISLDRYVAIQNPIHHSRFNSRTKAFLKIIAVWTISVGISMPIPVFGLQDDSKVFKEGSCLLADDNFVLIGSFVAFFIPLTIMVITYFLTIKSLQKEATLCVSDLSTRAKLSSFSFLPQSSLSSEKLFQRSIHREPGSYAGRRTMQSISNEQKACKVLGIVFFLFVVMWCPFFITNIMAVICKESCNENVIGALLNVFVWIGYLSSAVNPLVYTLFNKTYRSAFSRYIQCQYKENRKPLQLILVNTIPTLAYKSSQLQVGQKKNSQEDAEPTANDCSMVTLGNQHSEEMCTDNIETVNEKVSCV
Beta-galactosidase, sequence (Q8VNN2 whole entry): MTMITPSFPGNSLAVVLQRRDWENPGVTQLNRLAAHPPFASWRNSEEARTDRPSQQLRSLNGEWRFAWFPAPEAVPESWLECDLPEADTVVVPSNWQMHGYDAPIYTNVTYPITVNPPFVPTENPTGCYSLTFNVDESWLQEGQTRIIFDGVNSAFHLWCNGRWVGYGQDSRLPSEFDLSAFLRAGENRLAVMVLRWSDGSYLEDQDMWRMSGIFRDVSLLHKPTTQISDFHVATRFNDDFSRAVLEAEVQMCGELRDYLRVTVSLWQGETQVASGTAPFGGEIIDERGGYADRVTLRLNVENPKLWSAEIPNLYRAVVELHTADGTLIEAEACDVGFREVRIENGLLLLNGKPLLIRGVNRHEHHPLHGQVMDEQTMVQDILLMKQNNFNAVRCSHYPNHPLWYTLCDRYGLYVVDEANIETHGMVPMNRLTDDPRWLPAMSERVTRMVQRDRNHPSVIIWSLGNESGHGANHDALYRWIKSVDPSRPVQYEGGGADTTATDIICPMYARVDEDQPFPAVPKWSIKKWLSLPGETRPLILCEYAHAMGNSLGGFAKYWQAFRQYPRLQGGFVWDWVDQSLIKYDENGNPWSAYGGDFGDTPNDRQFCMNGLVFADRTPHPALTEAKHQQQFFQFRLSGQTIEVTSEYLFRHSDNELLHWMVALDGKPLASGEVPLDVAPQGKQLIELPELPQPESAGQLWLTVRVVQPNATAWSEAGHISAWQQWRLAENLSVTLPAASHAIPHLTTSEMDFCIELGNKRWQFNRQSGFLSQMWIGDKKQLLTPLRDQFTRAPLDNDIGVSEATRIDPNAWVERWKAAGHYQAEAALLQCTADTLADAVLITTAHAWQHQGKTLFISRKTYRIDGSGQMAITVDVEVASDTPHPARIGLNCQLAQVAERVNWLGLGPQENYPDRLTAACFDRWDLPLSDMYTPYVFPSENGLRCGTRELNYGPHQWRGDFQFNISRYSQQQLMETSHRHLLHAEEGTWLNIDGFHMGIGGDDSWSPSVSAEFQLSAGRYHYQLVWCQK
Beta-lactamase (Salmonella choleraesuis (strain SC-B67), UniProt Q5J463), sequence (Q5J463 whole entry): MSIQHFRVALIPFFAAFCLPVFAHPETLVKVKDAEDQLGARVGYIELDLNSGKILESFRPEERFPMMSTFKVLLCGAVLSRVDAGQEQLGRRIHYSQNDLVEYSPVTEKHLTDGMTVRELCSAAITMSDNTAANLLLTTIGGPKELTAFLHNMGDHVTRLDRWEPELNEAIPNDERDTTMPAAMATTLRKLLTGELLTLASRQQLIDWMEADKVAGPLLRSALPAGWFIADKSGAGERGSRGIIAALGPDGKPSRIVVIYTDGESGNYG
Mu-type opioid receptor, sequence (P35372 whole entry): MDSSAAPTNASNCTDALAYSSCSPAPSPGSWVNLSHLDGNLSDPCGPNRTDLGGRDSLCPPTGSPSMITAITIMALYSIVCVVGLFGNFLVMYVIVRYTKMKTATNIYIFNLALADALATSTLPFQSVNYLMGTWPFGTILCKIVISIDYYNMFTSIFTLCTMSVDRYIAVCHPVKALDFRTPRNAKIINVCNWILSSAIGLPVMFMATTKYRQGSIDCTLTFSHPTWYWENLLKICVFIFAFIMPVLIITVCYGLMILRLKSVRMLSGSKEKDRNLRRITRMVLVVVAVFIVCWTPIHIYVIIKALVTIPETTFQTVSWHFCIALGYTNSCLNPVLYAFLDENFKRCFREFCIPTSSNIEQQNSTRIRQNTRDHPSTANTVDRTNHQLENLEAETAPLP
Potassium channel subfamily K member 9, sequence (Q9NPC2 whole entry): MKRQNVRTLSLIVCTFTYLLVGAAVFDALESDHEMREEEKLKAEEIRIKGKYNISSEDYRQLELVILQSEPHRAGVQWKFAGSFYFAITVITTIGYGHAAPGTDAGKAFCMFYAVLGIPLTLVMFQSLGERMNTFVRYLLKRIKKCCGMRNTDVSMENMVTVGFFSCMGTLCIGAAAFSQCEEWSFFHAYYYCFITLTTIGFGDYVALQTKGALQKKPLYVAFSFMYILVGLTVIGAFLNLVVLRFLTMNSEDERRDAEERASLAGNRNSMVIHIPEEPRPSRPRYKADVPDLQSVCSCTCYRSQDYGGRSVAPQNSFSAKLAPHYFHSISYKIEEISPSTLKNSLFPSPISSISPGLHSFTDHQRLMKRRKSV

## C/N=c1\scc(-c2ccc(F)cc2)n1/N=C/c1ccc(O)c(O)c1
[1]
  IC50: > 14.6 µM (not active)
[2]
  IC50: 13 µM (not active)
Mu-type opioid receptor
  EC50: 92.5 µM (inactive)
[3]
  AC50: 12.2 µM (active)
[4]
  EC50: 5.08 µM (active)
[5]
  IC50: 29.6 µM (active)

## CN1C(=O)c2cc(NC(=O)c3cccc(F)c3)ccc2OC[C@H]2O[C@H](CC(=O)N3CCc4ccccc4C3)CC[C@@H]21
[6]
  AC50: 18.8 µM (active)
[7]
  AC50: 31.3 µM (active)

## COc1cccc(C(=O)Nc2cccc(NC(=O)c3cccc(C)c3)c2)c1
[8]
  IC50: 29.3 µM (active)

## Cn1c(-c2sccc2OCc2ccccc2)n[nH]c1=S
Beta-lactamase [9]
  IC50: > 59.6 µM (inactive)
Beta-lactamase [10]
  IC50: > 59.6 µM (inactive)
Beta-lactamase [11]
  IC50: > 59.6 µM (inactive)
[12]
  IC50: > 100 µM (inactive)
[13]
  IC50: 2.8 µM (active)

## Cc1ccc(Oc2ccc(Oc3ccc(C)cc3)nn2)cc1
Beta-galactosidase
  IC50: > 80 µM (inactive)

## CN(C)C(=O)c1ccc(-c2ccc3c(c2)[C@@H]2[C@@H](CCN2C(=O)c2ccc(F)cc2)[C@H](CO)N3C)cc1
[14]
  AC50: > 52 µM (inactive)

## O=[N+]([O-])c1ccc([N+]2=N[C-](c3ccccc3)CC2c2ccccc2)cc1 (centres undefined)
[15]
  EC50: 300 nM (active)
[16]
  EC50: 1.1 µM (active)

## C[C@H](NC(=O)C[C@H]1C[C@@H]2c3cc(NC(=O)c4cccnc4)ccc3O[C@@H]2[C@@H](CO)O1)c1ccccc1
[17]
  AbsAC35: 164.54 µM
